In patent US8916573B2, “Quinazoline-2,4-dione derivatives” (Actelion Pharmaceuticals Ltd., priority 2011, dated 2014) one finds MIC data, which are given here for 21 compounds.

≈ marks a conversion by molar mass, not a printed value. A value given as a limit tells only on which side of the number the result lay.

The experiment concerns S. aureus 29213. Briefly: Bacterial growth minimal inhibitory concentrations (microdilution, cation-adjusted Mueller-Hinton Broth, CLSI M7-A7). The class given is cell-based. Conditions: Staphylococcus aureus, 29213; microdilution in cation-adjusted Mueller-Hinton Broth. Here is the method:
Bacterial Growth Minimal Inhibitory Concentrations: Minimal inhibitory concentrations (MICs; mg/l) were determined in cation-adjusted MuellerHinton Broth by a microdilution method following the description given in “Methods for Dilution Antimicrobial Susceptibility Tests for Bacteria that Grow Aerobically”, Approved standard, 7th ed., Clinical and Laboratory Standards Institute (CLSI) Document M7-A7, Wayne, Pa., USA, 2006. Typical antibacterial test results are given in Table 1 hereafter (MIC in mg/l).
(In broth dilution the organism is exposed to a series of concentrations in liquid medium.)
By MIC is commonly meant the lowest concentration that inhibits growth of the organism. `O=C1CSc2ccc(N3C[C@H](CNCCn4c(=O)c5cccc6c5n(c4=O)CCC6)OC3=O)nc2N1` [Example 67, 2-(2-{[(S)-2-oxo-3-(3-oxo-3,4-dihydro-2H-pyrido[3,2-b][1,4]thiazin-6-yl)-oxazolidin-5-ylmethyl]-amino}-ethyl)-6,7-dihydro-5H-pyrido[3,2,1-ij]quinazoline-1,3-dione] came in with a minimal inhibitory concentration (MIC) not above 0.016 µg/mL.

Compound `O=C1CSc2ccc(N3C[C@@H](CCCn4c(=O)[nH]c5cc(Cl)ccc5c4=O)OC3=O)cc2N1` [Example 27, 7-chloro-3-{3-[(R)-2-oxo-3-(3-oxo-3,4-dihydro-2H-benzo[1,4]-thiazin-6-yl)-oxazolidin-5-yl]-propyl}-1H-quinazoline-2,4-dione] gave an MIC of 0.063 µg/mL (≈ 0.129 µM).

In turn, `Cn1c(=O)n(C[C@H](O)CC[C@@H]2CN(c3ccc4c(c3)NC(=O)CO4)C(=O)O2)c(=O)c2ccccc21` (racemic) [Example 49, 3-{(RS)-2-hydroxy-4-[(RS)-2-oxo-3-(3-oxo-3,4-dihydro-2H-benzo[1,4]oxazin-6-yl)-oxazolidin-5-yl]-butyl}-1-methyl-1H-quinazoline-2,4-dione] registered a minimum inhibitory concentration (MIC) of 1 µg/mL (≈ 2.08 µM). This MIC is about 16-fold higher than that of the compound before.

The compound `O=C1CSc2ccc(N3C[C@H](CCCn4c(=O)c5cccc6c5n(c4=O)CCC6)OC3=O)cc2N1` [Example 44, 2-{3-[(S)-2-oxo-3-(3-oxo-3,4-dihydro-2H-benzo[1,4]thiazin-6-yl)-oxazolidin-5-yl]-propyl}-6,7-dihydro-5H-pyrido[3,2,1-ij]quinazoline-1,3-dione] had an MIC not above 0.016 µg/mL.

`O=C1CSc2ccc(N3C[C@@H](CCCn4c(=O)c5cccc6c5n(c4=O)CCC6)OC3=O)cc2N1` [Example 41, 2-{3-[(R)-2-oxo-3-(3-oxo-3,4-dihydro-2H-benzo[1,4]thiazin-6-yl)-oxazolidin-5-yl]-propyl}-6,7-dihydro-5H-pyrido[3,2,1-ij]quinazoline-1,3-dione] registered an MIC of 0.25 µg/mL (≈ 0.508 µM).

Compound `Cn1c(=O)n(CC(O)CC[C@@H]2CN(c3ccc4c(n3)NC(=O)CS4)C(=O)O2)c(=O)c2ccccc21` (mixture of isomers) [Example 50, 3-{(RS)-2-hydroxy-4-[(R)-2-oxo-3-(3-oxo-3,4-dihydro-2H-pyrido[3,2-b][1,4]thiazin-6-yl)-oxazolidin-5-yl]-butyl}-1-methyl-1H-quinazoline-2,4-dione] gave an MIC of 0.125 µg/mL.

Turning to `COc1cc2[nH]c(=O)n(CCC[C@@H]3CN(c4ccc5c(c4)NC(=O)CS5)C(=O)O3)c(=O)c2cc1OC` [Example 39, 6,7-dimethoxy-3-{3-[(R)-2-oxo-3-(3-oxo-3,4-dihydro-2H-benzo[1,4]thiazin-6-yl)-oxazolidin-5-yl]-propyl}-1H-quinazoline-2,4-dione], 0.25 µg/mL (≈ 0.488 µM) was the least that counted as inhibitory (MIC).

For the compound `COC(=O)/C=C/c1ccc2c(=O)n(CCNCCC3CN(c4ccc5c(c4)NC(=O)CS5)C(=O)O3)c(=O)n(C)c2c1` (racemic) [Example 63, rac-(E)-3-[1-methyl-2,4-dioxo-3-(2-{2-[2-oxo-3-(3-oxo-3,4-dihydro-2H-benzo[1,4]thiazin-6-yl)-oxazolidin-5-yl]-ethylamino}-ethyl)-1,2,3,4-tetrahydro-quinazolin-7-yl]-acrylic acid methyl ester], 0.031 µg/mL (≈ 0.0535 µM) was the least that counted as inhibitory (MIC).

As to `Cn1c(=O)n(CCNC[C@H]2CN(c3ccc4c(n3)NC(=O)CO4)C(=O)O2)c(=O)c2cccc(Cl)c21` [Example 69, 8-chloro-1-methyl-3-(2-{[(S)-2-oxo-3-(3-oxo-3,4-dihydro-2H-pyrido[3,2-b][1,4]oxazin-6-yl)-oxazolidin-5-ylmethyl]-amino}-ethyl)-1H-quinazoline-2,4-dione], inhibition of growth (MIC) required 0.031 µg/mL (≈ 0.0619 µM).

Take `O=C1CSc2ccc(N3C[C@@H](CCCn4c(=O)[nH]c5cc(F)ccc5c4=O)OC3=O)cc2N1` [Example 28, 7-fluoro-3-{3-[(R)-2-oxo-3-(3-oxo-3,4-dihydro-2H-benzo[1,4]thiazin-6-yl)-oxazolidin-5-yl]-propyl}-1H-quinazoline-2,4-dione]: the MIC was found to be 0.063 µg/mL (≈ 0.134 µM).

Compound `Cn1c(=O)n(CCCC[C@@H]2CN(c3ccc4c(n3)NC(=O)CO4)C(=O)O2)c(=O)c2ccccc21` [Example 52, 1-methyl-3-{4-[(R)-2-oxo-3-(3-oxo-3,4-dihydro-2H-pyrido[3,2-b][1,4]oxazin-6-yl)-oxazolidin-5-yl]-butyl}-1H-quinazoline-2,4-dione] gave an MIC of 0.063 µg/mL (≈ 0.135 µM).

In turn, `Cc1cccc2c(=O)n(CCC[C@H]3CN(c4ccc5c(c4)NC(=O)CS5)C(=O)O3)c(=O)[nH]c12` [Example 13, 8-methyl-3-{3-[(S)-2-oxo-3-(3-oxo-3,4-dihydro-2H-benzo[1,4]thiazin-6-yl)-oxazolidin-5-yl]-propyl}-1H-quinazoline-2,4-dione] yielded an MIC not above 0.016 µg/mL.

`O=C1CSc2ccc(N3C[C@@H](CNCCn4c(=O)[nH]c5ccccc5c4=O)OC3=O)nc2N1` [Example 53, 3-(2-{[(R)-2-oxo-3-(3-oxo-3,4-dihydro-2H-pyrido[3,2-b][1,4]thiazin-6-yl)-oxazolidin-5-ylmethyl]-amino}-ethyl)-1H-quinazoline-2,4-dione]: 0.5 µg/mL (≈ 1.07 µM) was the least that counted as inhibitory (MIC).

`O=C1CSc2ccc(N3C[C@H](CCCn4c(=O)[nH]c5c(Cl)cccc5c4=O)OC3=O)cc2N1` [Example 29, 8-chloro-3-{3-[(S)-2-oxo-3-(3-oxo-3,4-dihydro-2H-benzo[1,4]-thiazin-6-yl)-oxazolidin-5-yl]-propyl}-1H-quinazoline-2,4-dione] had an MIC not above 0.016 µg/mL.

Take `COC(=O)/C=C/c1ccc2c(=O)n(CCNC[C@H]3CN(c4ccc5c(c4)NC(=O)CS5)C(=O)O3)c(=O)n(C)c2c1` [Example 65, (E)-3-[1-methyl-2,4-dioxo-3-(2-{[(S)-2-oxo-3-(3-oxo-3,4-dihydro-2H-benzo[1,4]thiazin-6-yl)-oxazolidin-5-ylmethyl]-amino}-ethyl)-1,2,3,4-tetrahydro-quinazolin-7-yl]-acrylic acid methyl ester]: the lowest concentration to inhibit growth (MIC) was 0.125 µg/mL (≈ 0.221 µM).

In turn, `Cn1c(=O)n(CCNC[C@@H]2CN(c3ccc4c(c3)NC(=O)CS4)C(=O)O2)c(=O)c2cccc(Cl)c21` [Example 61, 8-chloro-1-methyl-3-(2-{[(R)-2-oxo-3-(3-oxo-3,4-dihydro-2H-benzo[1,4]thiazin-6-yl)-oxazolidin-5-ylmethyl]-amino}-ethyl)-1H-quinazoline-2,4-dione] yielded an MIC not above 0.016 µg/mL.

For the compound `O=C1COc2ccc(N3C[C@H](CCCn4c(=O)c5cccc6c5n(c4=O)CCC6)OC3=O)nc2N1` [Example 45, 2-{3-[(S)-2-oxo-3-(3-oxo-3,4-dihydro-2H-pyrido[3,2-b][1,4]oxazin-6-yl)-oxazolidin-5-yl]-propyl}-6,7-dihydro-5H-pyrido[3,2,1-ij]quinazoline-1,3-dione], the MIC is not above 0.016 µg/mL.

`Cc1cccc2c(=O)n(CCC[C@H]3CN(c4ccc5c(n4)NC(=O)CS5)C(=O)O3)c(=O)[nH]c12` [Example 14, 8-methyl-3-{3-[(S)-2-oxo-3-(3-oxo-3,4-dihydro-2H-pyrido[3,2-b][1,4]thiazin-6-yl)-oxazolidin-5-yl]-propyl}-1H-quinazoline-2,4-dione] showed an MIC not above 0.016 µg/mL.

For the compound `Cc1cccc2[nH]c(=O)n(CCC[C@@H]3CN(c4ccc5c(c4)NC(=O)CS5)C(=O)O3)c(=O)c12` [Example 5, 5-methyl-3-{3-[(R)-2-oxo-3-(3-oxo-3,4-dihydro-2H-benzo[1,4]-thiazin-6-yl)-oxazolidin-5-yl]-propyl}-1H-quinazoline-2,4-dione], the MIC is not above 0.016 µg/mL.

For `COc1c(F)c(F)cc2c(=O)n(CCC[C@H]3CN(c4ccc5c(c4)NC(=O)CS5)C(=O)O3)c(=O)n(C3CC3)c12` [Example 43, 1-cyclopropyl-6,7-difluoro-8-methoxy-3-{3-[(S)-2-oxo-3-(3-oxo-3,4-dihydro-2H-benzo[1,4]thiazin-6-yl)-oxazolidin-5-yl]-propyl}-1H-quinazoline-2,4-dione], the MIC is not above 0.016 µg/mL.

`COc1cccc2[nH]c(=O)n(CCC[C@@H]3CN(c4ccc5c(c4)NC(=O)CS5)C(=O)O3)c(=O)c12` [Example 33, 5-methoxy-3-{3-[(R)-2-oxo-3-(3-oxo-3,4-dihydro-2H-benzo[1,4]-thiazin-6-yl)-oxazolidin-5-yl]-propyl}-1H-quinazoline-2,4-dione] yielded an MIC of 0.125 µg/mL (≈ 0.259 µM).
